One block for each molecule: values may come before it.
Tested on: α7 integrin promoter
Assay: muscle cell-based assay: α7βgal+/− myoblasts/myotubes, LacZ reporter, β-galactosidase cleavage of FDG
Design: species or system mouse; Results in α7+/− β-galactosidase assay: scale not given here
Settings: for Results in a α7+/− β-galactosidase assay, Myotubes, 0.5 uM: compound at 0.5 uM; for Results in a α7+/− β-galactosidase assay, Myotubes, 1 uM: compound at 1 uM; for Results in a α7+/− β-galactosidase assay, Myotubes, 5 uM: compound at 5 uM; for Results in a α7+/− β-galactosidase assay, Myotubes, 10 uM: compound at 10 uM; for Results in a α7+/− β-galactosidase assay, Myotubes, 20 uM: compound at 20 uM; for Results in a α7+/− β-galactosidase assay, Myotubes, 40 uM: compound at 40 uM; for AC50 / EC50: Mus musculus; for AC50: log of AC50, given with negative sign, unit of AC50 not given, read-out: Fit Log AC50 (converted); for Fit Curve Class: key not given; for EC50: given as log AC50 (negative values), read-out: Fit LogAC50 (converted); for Results in α7+/− β-galactosidase assay: Myoblasts
In short: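 Primary α7βgal+/− mouse myoblasts (LacZ knocked into α7 integrin exon 1, promoter retained), differentiated; promoter activity read as β-galactosidase conversion of non-fluorescent FDG to fluorescein. Hits followed by dose-response, western analysis and myostatin counterscreen.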

[1] = Table 12, fitted activity at zero concentration
[2] = Table 12 Compound data, concentration-response curve fit
[3] = curve fit, activity at zero concentration

SMILES: Cc1ccc2c(c1)/C(=C/c1ccccc1F)C(=O)N2 [drawing 459]
- Results in a α7+/− β-galactosidase assay, Myotubes, 0.5 uM: −0.02905
- Results in a α7+/− β-galactosidase assay, Myotubes, 1 uM: −0.08264
- Results in a α7+/− β-galactosidase assay, Myotubes, 5 uM: −0.2089
- Results in a α7+/− β-galactosidase assay, Myotubes, 10 uM: 0.1057
- Results in a α7+/− β-galactosidase assay, Myotubes, 20 uM: −0.3626
- Results in a α7+/− β-galactosidase assay, Myotubes, 40 uM: −0.3722

SMILES: C[C@H]1CNC(=O)c2c(C(=O)Nc3ccc(CNC(=O)OC(C)(C)C)cc3)ncn21 [Compound 88]
- AC50 (Table 12): 8.91 µM
- Fit HillSlope (Table 12, curve fit): 1.01
- Fit Zero Activity [%] [1]: 9.418%
- Fit Curve Class (Table 12): 2.1
- Score [2]: 43

- EC50: 10 µM
SMILES: COCc1c(C(=O)N/N=C(\C)c2ccc(OCc3ccccc3)cc2)nnn1-c1nonc1N [Compound 143]
- Score (Table 12 compound data): 42
- Fit Curve Class (curve class number): 2.1
- Fit HillSlope (curve fit): 4.4495
- Fit Zero Activity [%] [3]: 4.6719%

SMILES: CCOc1cc(C)c(S(=O)(=O)N2CCCCC2)cc1C [drawing 471]
- Results in a α7+/− β-galactosidase assay, Myotubes, 0.5 uM: −0.1603
- Results in a α7+/− β-galactosidase assay, Myotubes, 1 uM: −0.08287
- Results in a α7+/− β-galactosidase assay, Myotubes, 5 uM: −0.1415
- Results in a α7+/− β-galactosidase assay, Myotubes, 10 uM: −0.1282
- Results in a α7+/− β-galactosidase assay, Myotubes, 20 uM: 0.01353
- Results in a α7+/− β-galactosidase assay, Myotubes, 40 uM: −0.03791

SMILES: Oc1nc(SCc2ccc(Cl)cc2)nc2ccsc12 [drawing 635]
- Results in α7+/− β-galactosidase assay (0.5 uM): 0.07667
- Results in α7+/− β-galactosidase assay (1 uM): 0.02077
- Results in α7+/− β-galactosidase assay (5 uM): −0.02435
- Results in α7+/− β-galactosidase assay (10 uM): −0.03652
- Results in α7+/− β-galactosidase assay (20 uM): −0.1552
- Results in α7+/− β-galactosidase assay (40 uM): −0.139

SMILES: Cn1cc(CN2CCC(C(=O)Nc3cccc(-c4cscn4)c3)CC2)cn1 [drawing 702]
- Results in α7+/− β-galactosidase assay (0.5 uM): 0.1618
- Results in α7+/− β-galactosidase assay (1 uM): 0.05749
- Results in α7+/− β-galactosidase assay (5 uM): 0.02884
- Results in α7+/− β-galactosidase assay (10 uM): 0.2457
- Results in α7+/− β-galactosidase assay (20 uM): −0.3975
- Results in α7+/− β-galactosidase assay (40 uM): −0.5369

SMILES: O=c1[nH]c(CN2CCCCC2)cc2c1C1(CCCCC1)Cc1ccccc1-2 [drawing 357]
- Results in a α7+/− β-galactosidase assay, Myotubes, 0.5 uM: 0.1087
- Results in a α7+/− β-galactosidase assay, Myotubes, 1 uM: 0.1264
- Results in a α7+/− β-galactosidase assay, Myotubes, 5 uM: −0.08739
- Results in a α7+/− β-galactosidase assay, Myotubes, 10 uM: −0.0441
- Results in a α7+/− β-galactosidase assay, Myotubes, 20 uM: −0.09507
- Results in a α7+/− β-galactosidase assay, Myotubes, 40 uM: −0.1888

SMILES: COc1ccc(CCNC(=O)Cn2nnc(C(=O)Nc3ccc(Br)cc3)c2N)cc1OC [drawing 533]
- Results in α7+/− β-galactosidase assay (0.5 uM): 0.1152
- Results in α7+/− β-galactosidase assay (1 uM): 0.03848
- Results in α7+/− β-galactosidase assay (5 uM): −0.06784
- Results in α7+/− β-galactosidase assay (10 uM): −0.0702
- Results in α7+/− β-galactosidase assay (20 uM): −0.3276
- Results in α7+/− β-galactosidase assay (40 uM): −0.5608

SMILES: O=C(O)c1csc(-c2cccs2)n1 [drawing 570]
- Results in α7+/− β-galactosidase assay (0.5 uM): 0.0287
- Results in α7+/− β-galactosidase assay (1 uM): −0.01442
- Results in α7+/− β-galactosidase assay (5 uM): 0.8119
- Results in α7+/− β-galactosidase assay (10 uM): −0.08869
- Results in α7+/− β-galactosidase assay (20 uM): 0.1022
- Results in α7+/− β-galactosidase assay (40 uM): −0.04959

SMILES: CC(C(=O)Nc1ccc(C#N)cc1)N(C)CC(=O)Nc1cccc(F)c1 (stereo not shown) [drawing 630]
- Results in α7+/− β-galactosidase assay (0.5 uM): 0.01302
- Results in α7+/− β-galactosidase assay (1 uM): −0.06275
- Results in α7+/− β-galactosidase assay (5 uM): 0.01684
- Results in α7+/− β-galactosidase assay (10 uM): 0.1242
- Results in α7+/− β-galactosidase assay (20 uM): −0.01497
- Results in α7+/− β-galactosidase assay (40 uM): −0.1721

- EC50: 10 µM
SMILES: NS(=O)(=O)c1ccc(NC(=O)c2ccc(CNS(=O)(=O)c3cc(C(F)(F)F)ccc3Cl)cc2)cc1 [Compound 207]
- Score (Table 12 compound data): 42
- Fit Curve Class (curve class number): 2.2
- Fit HillSlope (curve fit): 2.5334
- Fit Zero Activity [%] [3]: 0.1699%

SMILES: O=C1C2CCCN2C(=O)N1CCCN1CCN(c2cccc(Br)c2)CC1 (stereo not shown) [drawing 661]
- Results in α7+/− β-galactosidase assay (0.5 uM): 0.07667
- Results in α7+/− β-galactosidase assay (1 uM): 0.0555
- Results in α7+/− β-galactosidase assay (5 uM): 0.04982
- Results in α7+/− β-galactosidase assay (10 uM): 0.05028
- Results in α7+/− β-galactosidase assay (20 uM): 0.1016
- Results in α7+/− β-galactosidase assay (40 uM): 0.1941

SMILES: Fc1ccc(-c2ccnc3nc(N4CCN(c5ccccc5)CC4)nn23)cc1 [drawing 441]
- Results in a α7+/− β-galactosidase assay, Myotubes, 0.5 uM: 0.1617
- Results in a α7+/− β-galactosidase assay, Myotubes, 1 uM: 0.1989
- Results in a α7+/− β-galactosidase assay, Myotubes, 5 uM: 0.08445
- Results in a α7+/− β-galactosidase assay, Myotubes, 10 uM: 0.3037
- Results in a α7+/− β-galactosidase assay, Myotubes, 20 uM: −0.1429
- Results in a α7+/− β-galactosidase assay, Myotubes, 40 uM: 0.1756

SMILES: COc1ccc(C(=O)ONC(=N)c2cccc(C)c2)cc1OC [Compound 78]
- AC50 (Table 12): 10 µM
- Fit HillSlope (Table 12, curve fit): 1.7137
- Fit Zero Activity [%] [1]: 9.6566%
- Fit Curve Class (Table 12): 2.1
- Score [2]: 44

SMILES: COc1ccc(Nc2ncnc3ccc(Br)cc23)cc1OC [Compound 75]
- AC50 (Table 12): 3.98 µM
- Fit HillSlope (Table 12, curve fit): 1.5579
- Fit Zero Activity [%] [1]: 26.9551%
- Fit Curve Class (Table 12): 2.2
- Score [2]: 44
